In PMC5967867, “An NMDAR positive and negative allosteric modulator series share a binding site and are interconverted by methyl groups” (eLife, 2018):
Where two headings read alike, the source gives them in different places. Marks after values point to notes of the source that are not given here. Blank lines part the entries; values can stand above or below the molecule they belong to.

Key:
Format in all cases: cell-based
GluN1/GluN2B NMDARs = GluN1/GluN2B NMDARs (Rattus norvegicus, UniProt P35439+Q00960); experiment: Two-electrode voltage-clamp recordings, Xenopus laevis oocytes expressing GluN1/GluN2B; conditions: for Emax: read-out: Maximal Degree of Modulation (% of control)
Protocol: (§1) cDNAs for rat wild type NMDAR subunits GluN1-1a (GenBank U11418, U08261; hereafter GluN1 or GluN1a), GluN1-1b (U08263, hereafter GluN1b), GluN2A (D13211), GluN2B (U11419), GluN2C (M91563), and GluN2D (L31611, modified as described in [Monyer et al., 1994]) were provided by Drs. S. Heinemann (Salk Institute), S. Nakanishi (Kyoto University), and P. Seeburg (University of Heidelberg). Site-directed mutagenesis was conducted using the QuikChange kit (Agilent Technologies, Santa Clara, CA) following the recommended protocol. DNA sequencing was used to verify all mutations. The amino acid numbering system started with the initiating methionine as residue number one. For expression in Xenopus laevis oocytes, cDNA constructs were linearized by restriction enzymes, and subsequently used to synthesize in vitro cRNAs following the manufacturer’s protocol (mMessage mMachine, Ambion, ThermoFisher Scientific, Waltham, MA).
(§2) Xenopus laevis stage VI oocytes (Ecocyte Biosciences, Austin, TX) were injected as previously described ([Hansen et al., 2013]) 2–7 days prior to recording with cRNA encoding the NMDAR subunits and stored at 15°C in media containing (in mM) 88 NaCl, 2.4 NaHCO3, 1 KCl, 0.33 Ca(NO3)2, 0.41 CaCl2, 0.82 MgSO4, 5 Tris-HCl; pH was adjusted to 7.4 with NaOH and the solution supplemented with 1 U/mL penicillin, 0.1 mg/mL gentamicin sulfate, and 1 μg/mL streptomycin. Two-electrode voltage-clamp recordings were performed at room temperature (21–23°C) using different internal solutions for voltage and current electrodes (0.3 M and 3.0 M KCl, respectively). All extracellular solutions were made from a solution containing (in mM) 90 NaCl, 1 KCl, 10 HEPES, 0.5 BaCl2, 0.01 EDTA (pH 7.4 with NaOH). Experiments were performed using an eight port Modular Valve Positioner (Hamilton Company, Reno, NV) and controlled by custom software (Easy Oocyte, Emory University, Atlanta, GA)to exchange solutions. Oocyte currents were recorded at a holding potential of −40 mV using a two-electrode voltage-clamp amplifier (OC-725B or OC-725C, Warner Instruments, Hamden, CT). […] In MTSEA experiments, fresh MTSEA solutions (0.2 mM) were prepared and utilized in less than 30 min to limit compound degradation.
(§3) Measurements are given as mean ± SEM unless otherwise indicated. The number of replicate experiments used was chosen to ensure a power level of at least 0.80 when α = 0.05 and when detecting appropriate effect sizes. EC50 and IC50 values and confidence intervals reported were calculated by averaging the log(EC50) or log(IC50) value, determining confidence intervals for mean log(EC50) or log(IC50), and converting back to units of molarity. Statistical significance evaluations (α set to 0.05) were performed using a one-way ANOVA with Dunnett’s multiple comparison test, a paired t–test, or other appropriate tests as described.

GluN1/GluN2A NMDARs = GluN1/GluN2A NMDARs (Rattus norvegicus, UniProt P35439+Q00959); experiment: Two-electrode voltage-clamp recordings, Xenopus laevis oocytes expressing GluN1/GluN2A; conditions: for IC50: glutamate/glycine 100/30 µM; for EC50: read-out: EC50 (µM) [conf. int.]; for Emax: read-out: Maximal Degree of Modulation (% of control)
Protocol: as §1, §2, §3

GluN1/GluN2D NMDARs = GluN1/GluN2D NMDARs (Rattus norvegicus, UniProt P35439+Q62645); experiment: Two-electrode voltage-clamp recordings, Xenopus laevis oocytes expressing GluN1/GluN2D; conditions: for Emax: read-out: Maximal Degree of Modulation (% of control)
Protocol: cDNAs for rat wild type NMDAR subunits GluN1-1a (GenBank U11418, U08261; hereafter GluN1 or GluN1a), GluN1-1b (U08263, hereafter GluN1b), GluN2A (D13211), GluN2B (U11419), Glu[…]), and Glu[…], modified as described in [Monyer et al., 1994]) were provided by Drs. S. Heinemann (Salk Institute), S. Nakanishi (Kyoto University), and P. Seeburg (University of Heidelberg). Site-directed mutagenesis was conducted using the QuikChange kit (Agilent Technologies, Santa Clara, CA) following the recommended protocol. DNA sequencing was used to verify all mutations. The amino acid numbering system started with the initiating methionine as residue number one. For expression in Xenopus laevis oocytes, cDNA constructs were linearized by restriction enzymes, and subsequently used to synthesize in vitro cRNAs following the manufacturer's protocol (mMessage mMachine, Ambion, ThermoFisher Scientific, Waltham, MA). […] All extracellular solutions were made from a solution containing (in mM) 90 NaCl, 1 KCl, 10 HEPES, 0.5 BaCl2, 0.01 EDTA (pH 7.4 with NaOH). Experiments were performed using an eight port Modular Valve Positioner (Hamilton Company, Reno, NV) and controlled by custom software (Easy Oocyte, Emory University, Atlanta, GA)to exchange solutions. Oocyte currents were recorded at a holding potential of -40 mV using a two-electrode voltage-clamp amplifier (OC-725B or OC-725C, Warner Instruments, Hamden, CT). […] Measurements are given as mean ± SEM unless otherwise indicated. […] EC50 and IC50 values and confidence intervals reported were calculated by averaging the log(EC50) or log(IC50) value, determining confidence intervals for mean log(EC50) or log(IC50), and converting back to units of molarity. Statistical significance evaluations (α set to 0.05) were performed using a one-way ANOVA with Dunnett's multiple comparison test, a paired t-test, or other appropriate tests as described.

[1] = +EU1794-27 10 µM, glutamate/glycine 100/30 µM, read-out: EU1794-2 IC50 (µM) [conf. int.]
[2] = +EU1794-27 20 µM, glutamate/glycine 100/30 µM, read-out: EU1794-2 IC50 (µM) [conf. int.]
[3] = read-out: IC50 (µM) [conf. int.]
[4] = saturating glutamate/glycine 100/30 µM, mean [95% CI], - = not fit, response at 30 µM differed by no more than 15% from control, read-out: EC50 (µM) [conf. int.]
[5] = saturating glutamate/glycine 100/30 µM, mean ± SEM
[6] = sub-saturating glutamate/glycine 0.6/0.2 µM, read-out: EC50 (µM) [conf. int.]
[7] = sub-saturating glutamate/glycine 0.6/0.2 µM
[8] = no second modulator (+EU1794-27 0 µM), read-out: IC50 (µM) [conf. int.]
[9] = saturating glutamate/glycine 100/30 µM, mean [95% CI], - = not fit, response at 30 µM differed by no more than 15% from control
[10] = glutamate/glycine 100/30 µM, no second modulator (+EU1794-27 0 µM), read-out: IC50 (µM) [conf. int.]
[11] = saturating glutamate/glycine 100/30 µM, mean [95% CI], read-out: EC50 (µM) [conf. int.]
[12] = sub-saturating glutamate/glycine 1/0.3 µM, read-out: EC50 (µM) [conf. int.]
[13] = sub-saturating glutamate/glycine 1/0.3 µM
[14] = +EU1794-2 1 µM, glutamate/glycine 100/30 µM, read-out: EU1794-27 EC50 (µM) [conf. int.]
[15] = +EU1794-2 3 µM, glutamate/glycine 100/30 µM, read-out: EU1794-27 EC50 (µM) [conf. int.]
[16] = sub-saturating glutamate/glycine 2/0.6 µM

GluN1/GluN2D NMDARs, sequence (Q62645 28-1323, other chains not shown): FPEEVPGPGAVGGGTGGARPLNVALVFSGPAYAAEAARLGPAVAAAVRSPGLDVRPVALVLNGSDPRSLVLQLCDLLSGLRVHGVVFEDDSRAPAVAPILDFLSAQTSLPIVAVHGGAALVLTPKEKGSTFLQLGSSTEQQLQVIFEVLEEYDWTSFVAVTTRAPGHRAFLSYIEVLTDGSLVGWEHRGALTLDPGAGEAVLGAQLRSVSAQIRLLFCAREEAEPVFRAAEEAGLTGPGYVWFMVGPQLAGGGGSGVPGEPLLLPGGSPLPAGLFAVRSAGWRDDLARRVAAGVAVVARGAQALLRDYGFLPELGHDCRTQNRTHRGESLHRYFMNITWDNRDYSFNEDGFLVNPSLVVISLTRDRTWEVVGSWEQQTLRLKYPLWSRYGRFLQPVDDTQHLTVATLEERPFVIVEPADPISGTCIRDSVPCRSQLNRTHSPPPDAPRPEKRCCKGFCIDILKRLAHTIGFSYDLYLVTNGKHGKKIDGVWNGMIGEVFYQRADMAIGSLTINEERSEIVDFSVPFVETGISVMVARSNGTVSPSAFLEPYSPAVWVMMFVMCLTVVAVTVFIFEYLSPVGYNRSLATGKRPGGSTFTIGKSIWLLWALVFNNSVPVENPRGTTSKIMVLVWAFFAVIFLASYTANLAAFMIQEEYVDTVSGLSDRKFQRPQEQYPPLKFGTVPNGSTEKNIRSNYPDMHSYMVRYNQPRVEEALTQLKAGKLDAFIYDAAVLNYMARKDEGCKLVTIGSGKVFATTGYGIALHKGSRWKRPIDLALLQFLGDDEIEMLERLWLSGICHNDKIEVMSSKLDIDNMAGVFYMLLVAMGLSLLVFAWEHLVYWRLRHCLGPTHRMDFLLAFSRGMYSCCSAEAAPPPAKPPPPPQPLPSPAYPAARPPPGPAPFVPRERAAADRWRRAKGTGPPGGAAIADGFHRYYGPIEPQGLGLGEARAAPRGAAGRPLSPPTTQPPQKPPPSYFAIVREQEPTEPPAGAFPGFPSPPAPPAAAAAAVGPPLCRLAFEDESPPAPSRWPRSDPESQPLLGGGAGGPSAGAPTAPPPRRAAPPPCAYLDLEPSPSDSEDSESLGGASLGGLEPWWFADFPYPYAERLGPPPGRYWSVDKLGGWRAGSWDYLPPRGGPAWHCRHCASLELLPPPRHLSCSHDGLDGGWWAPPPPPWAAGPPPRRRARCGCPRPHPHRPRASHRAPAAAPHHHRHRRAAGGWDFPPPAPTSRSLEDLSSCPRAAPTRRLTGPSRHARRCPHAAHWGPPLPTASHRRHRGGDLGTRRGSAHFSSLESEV
GluN1/GluN2B NMDARs, sequence (Q00960 27-1482, other chains not shown): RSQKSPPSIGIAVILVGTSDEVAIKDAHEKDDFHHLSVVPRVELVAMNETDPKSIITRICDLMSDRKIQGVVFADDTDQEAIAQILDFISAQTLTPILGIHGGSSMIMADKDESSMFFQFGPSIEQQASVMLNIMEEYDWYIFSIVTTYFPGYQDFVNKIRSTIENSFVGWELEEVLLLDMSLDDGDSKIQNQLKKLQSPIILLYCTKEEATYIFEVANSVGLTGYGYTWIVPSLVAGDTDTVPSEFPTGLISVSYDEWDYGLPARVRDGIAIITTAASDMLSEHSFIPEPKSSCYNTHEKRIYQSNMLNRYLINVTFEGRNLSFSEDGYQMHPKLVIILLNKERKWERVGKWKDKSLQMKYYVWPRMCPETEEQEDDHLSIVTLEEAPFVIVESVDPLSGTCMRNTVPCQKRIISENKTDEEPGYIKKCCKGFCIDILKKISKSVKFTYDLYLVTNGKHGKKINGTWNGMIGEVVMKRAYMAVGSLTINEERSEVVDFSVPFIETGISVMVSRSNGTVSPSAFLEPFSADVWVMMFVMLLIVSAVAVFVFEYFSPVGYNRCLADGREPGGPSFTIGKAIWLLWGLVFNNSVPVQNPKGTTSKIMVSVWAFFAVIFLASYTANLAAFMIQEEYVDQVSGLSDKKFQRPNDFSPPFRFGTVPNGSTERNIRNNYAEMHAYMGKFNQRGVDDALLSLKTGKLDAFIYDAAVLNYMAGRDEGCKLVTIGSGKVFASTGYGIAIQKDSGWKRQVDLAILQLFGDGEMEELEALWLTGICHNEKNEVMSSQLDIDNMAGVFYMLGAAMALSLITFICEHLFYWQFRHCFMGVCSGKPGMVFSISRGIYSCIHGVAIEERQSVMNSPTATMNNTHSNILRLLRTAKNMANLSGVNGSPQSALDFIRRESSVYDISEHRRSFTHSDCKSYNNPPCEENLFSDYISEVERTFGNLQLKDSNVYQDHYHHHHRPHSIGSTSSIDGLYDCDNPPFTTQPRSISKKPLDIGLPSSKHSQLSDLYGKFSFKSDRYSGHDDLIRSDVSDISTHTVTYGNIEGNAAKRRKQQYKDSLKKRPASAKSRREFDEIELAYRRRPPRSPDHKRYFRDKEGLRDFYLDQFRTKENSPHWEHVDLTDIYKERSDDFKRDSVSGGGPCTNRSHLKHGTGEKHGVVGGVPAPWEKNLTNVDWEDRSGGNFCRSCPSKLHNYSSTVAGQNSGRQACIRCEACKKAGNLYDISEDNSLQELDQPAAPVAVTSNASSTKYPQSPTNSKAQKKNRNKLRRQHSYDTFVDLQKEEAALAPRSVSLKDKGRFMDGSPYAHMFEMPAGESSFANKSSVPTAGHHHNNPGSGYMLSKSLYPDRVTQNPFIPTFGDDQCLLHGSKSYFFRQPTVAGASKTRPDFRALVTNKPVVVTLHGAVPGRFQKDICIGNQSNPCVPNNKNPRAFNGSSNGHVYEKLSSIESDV
GluN1/GluN2A NMDARs, sequence (Q00959 23-1464, other chains not shown): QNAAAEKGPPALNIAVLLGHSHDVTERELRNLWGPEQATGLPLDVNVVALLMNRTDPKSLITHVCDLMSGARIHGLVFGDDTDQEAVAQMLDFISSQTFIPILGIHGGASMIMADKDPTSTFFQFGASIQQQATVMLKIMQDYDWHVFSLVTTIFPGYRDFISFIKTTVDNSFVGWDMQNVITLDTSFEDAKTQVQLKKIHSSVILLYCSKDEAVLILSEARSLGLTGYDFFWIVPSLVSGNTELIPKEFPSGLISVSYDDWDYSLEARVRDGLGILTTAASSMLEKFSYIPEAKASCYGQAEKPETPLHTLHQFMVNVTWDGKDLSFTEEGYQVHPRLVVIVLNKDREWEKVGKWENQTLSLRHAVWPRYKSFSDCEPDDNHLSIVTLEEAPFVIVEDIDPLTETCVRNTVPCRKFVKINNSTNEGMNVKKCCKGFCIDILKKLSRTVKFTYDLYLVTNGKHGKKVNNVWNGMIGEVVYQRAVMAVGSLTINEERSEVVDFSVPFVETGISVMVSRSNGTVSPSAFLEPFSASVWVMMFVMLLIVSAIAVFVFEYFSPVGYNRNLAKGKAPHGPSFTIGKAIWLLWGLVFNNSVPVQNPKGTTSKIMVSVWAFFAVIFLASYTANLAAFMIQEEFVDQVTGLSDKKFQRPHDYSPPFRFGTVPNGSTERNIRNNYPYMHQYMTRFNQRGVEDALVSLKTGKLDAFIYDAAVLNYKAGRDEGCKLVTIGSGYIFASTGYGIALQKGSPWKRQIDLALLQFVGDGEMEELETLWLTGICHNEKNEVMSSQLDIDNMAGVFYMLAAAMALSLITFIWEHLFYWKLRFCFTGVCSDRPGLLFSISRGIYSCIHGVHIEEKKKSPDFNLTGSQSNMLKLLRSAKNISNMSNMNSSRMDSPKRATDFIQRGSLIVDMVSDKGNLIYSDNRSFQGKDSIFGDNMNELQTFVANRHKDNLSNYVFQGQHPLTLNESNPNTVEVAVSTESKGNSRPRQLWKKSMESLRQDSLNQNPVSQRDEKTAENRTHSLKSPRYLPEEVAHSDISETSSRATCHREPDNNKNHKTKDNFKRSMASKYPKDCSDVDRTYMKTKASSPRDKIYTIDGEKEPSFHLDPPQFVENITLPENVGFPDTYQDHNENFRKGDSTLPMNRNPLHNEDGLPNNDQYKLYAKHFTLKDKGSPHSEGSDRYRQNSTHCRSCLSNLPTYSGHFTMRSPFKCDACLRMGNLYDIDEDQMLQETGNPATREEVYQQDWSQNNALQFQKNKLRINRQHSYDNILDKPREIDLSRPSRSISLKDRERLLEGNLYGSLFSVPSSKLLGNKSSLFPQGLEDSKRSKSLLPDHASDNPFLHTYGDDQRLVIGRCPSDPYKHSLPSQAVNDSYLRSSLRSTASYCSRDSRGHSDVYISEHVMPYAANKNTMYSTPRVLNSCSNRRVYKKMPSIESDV

- IC50 (GluN1/GluN2B NMDARs; [1]): 3.5 µM
- IC50 (GluN1/GluN2B NMDARs; [2]): 12 µM
- IC50 (GluN1/GluN2B NMDARs; [3]): 1.2 µM
- EC50 (GluN1/GluN2B NMDARs; [4]): 1.2 µM
- Emax (GluN1/GluN2B NMDARs; [5]): 10%
- EC50 (GluN1/GluN2B NMDARs; [6]): 1.4 µM
- Emax (GluN1/GluN2B NMDARs; [7]): 28%
- IC50 (GluN1/GluN2A NMDARs; +EU1794-27 3 µM, read-out: EU1794-2 IC50 (µM) [conf. int.]): 2.5 µM
- IC50 (GluN1/GluN2A NMDARs; +EU1794-27 10 µM, read-out: EU1794-2 IC50 (µM) [conf. int.]): 3.6 µM
- IC50 (GluN1/GluN2A NMDARs; +EU1794-27 20 µM, read-out: EU1794-2 IC50 (µM) [conf. int.]): 8 µM
- IC50 (GluN1/GluN2A NMDARs; [8]): 0.6 µM
- EC50 (GluN1/GluN2A NMDARs; [9]): 0.6 µM
- Emax (GluN1/GluN2A NMDARs; [5]): 6%
- EC50 (GluN1/GluN2A NMDARs; [7]): 1.8 µM
- Emax (GluN1/GluN2A NMDARs; [7]): 37%
- IC50 (GluN1/GluN2D NMDARs; +EU1794-27 3 µM, glutamate/glycine 100/30 µM, read-out: EU1794-2 IC50 (µM) [conf. int.]): 1.4 µM
- IC50 (GluN1/GluN2D NMDARs; [1]): 2.7 µM
- IC50 (GluN1/GluN2D NMDARs; [2]): 7.3 µM
- IC50 (GluN1/GluN2D NMDARs; [10]): 0.2 µM
- EC50 (GluN1/GluN2D NMDARs; [11]): 0.2 µM
- Emax (GluN1/GluN2D NMDARs; [5]): 14%
- EC50 (GluN1/GluN2D NMDARs; [6]): 0.32 µM
- Emax (GluN1/GluN2D NMDARs; [7]): 24%
SMILES: CCOC(=O)c1c(NC(=O)CC2SC(=N)NC2=O)sc2c1CCC(C)C2 (stereo not drawn) [EU1794-2, ethyl 2-(2-(2-imino-4-oxothiazolidin-5-yl)acetamido)-6-methyl-4,5,6,7-tetrahydrobenzo[b]thiophene-3-carboxylate]

- Fold Difference (glutamate EC50) (GluN1/GluN2B NMDARs; control vs 10 µM EU1794-4): 2.0^†
- Fold Difference (glycine EC50) (GluN1/GluN2B NMDARs; control vs 10 µM EU1794-4): 3.3^†
- IC50 (GluN1/GluN2B NMDARs; [3]): 2.6 µM
- EC50 (GluN1/GluN2B NMDARs; [4]): 2.6 µM
- Emax (GluN1/GluN2B NMDARs; [5]): 67%
- EC50 (GluN1/GluN2B NMDARs; [12]): 4.3 µM
- Emax (GluN1/GluN2B NMDARs; [13]): 210%
- Fold Difference (glutamate EC50) (GluN1/GluN2A NMDARs; control vs 10 µM EU1794-4): 2.4^†
- Fold Difference (glycine EC50) (GluN1/GluN2A NMDARs; control vs 10 µM EU1794-4): 2.8^†
- IC50 (GluN1/GluN2A NMDARs; [8]): 2.2 µM
- EC50 (GluN1/GluN2A NMDARs; [9]): 2.2 µM
- Emax (GluN1/GluN2A NMDARs; [5]): 32%
- EC50 (GluN1/GluN2A NMDARs; [13]): 3.9 µM
- Emax (GluN1/GluN2A NMDARs; [13]): 500%
- Fold Difference (glutamate EC50) (GluN1/GluN2D NMDARs; control vs 10 µM EU1794-4): 3.9^†
- Fold Difference (glycine EC50) (GluN1/GluN2D NMDARs; control vs 10 µM EU1794-4): 8.9^†
- IC50 (GluN1/GluN2D NMDARs; [10]): 0.36 µM
- EC50 (GluN1/GluN2D NMDARs; [11]): 0.36 µM
- Emax (GluN1/GluN2D NMDARs; [5]): 51%
- EC50 (GluN1/GluN2D NMDARs; sub-saturating glutamate/glycine 0.3/0.09 µM, read-out: EC50 (µM) [conf. int.]): 14 µM
- Emax (GluN1/GluN2D NMDARs; sub-saturating glutamate/glycine 0.3/0.09 µM): 540%
SMILES: CCOC(=O)c1c(NC(=O)CC2SC(=N)NC2=O)sc2c1CCCC2 (stereo not drawn) [EU1794-4, ethyl 2-(2-(2-imino-4-oxothiazolidin-5-yl)acetamido)-4,5,6,7-tetrahydrobenzo[b]thiophene-3-carboxylate]

- EC50 (GluN1/GluN2B NMDARs; [14]): 6 µM
- EC50 (GluN1/GluN2B NMDARs; [15]): 8.4 µM
- Fold Difference (glutamate EC50) (GluN1/GluN2B NMDARs; control vs 10 µM EU1794-27): 2.0^†
- Fold Difference (glycine EC50) (GluN1/GluN2B NMDARs; control vs 10 µM EU1794-27): 2.9^†
- EC50 (GluN1/GluN2B NMDARs; [4]): 1.4 µM
- Emax (GluN1/GluN2B NMDARs; [5]): 130%
- EC50 (GluN1/GluN2B NMDARs; [12]): 6.3 µM
- Emax (GluN1/GluN2B NMDARs; [13]): 400%
- Fold Difference (glutamate EC50) (GluN1/GluN2A NMDARs; control vs 10 µM EU1794-27): 2.3^†
- Fold Difference (glycine EC50) (GluN1/GluN2A NMDARs; control vs 10 µM EU1794-27): 1.6
- EC50 (GluN1/GluN2A NMDARs; [9]): 7.4 µM
- Emax (GluN1/GluN2A NMDARs; [5]): 52%
- EC50 (GluN1/GluN2A NMDARs; [16]): 8.1 µM
- Emax (GluN1/GluN2A NMDARs; [16]): 340%
- EC50 (GluN1/GluN2D NMDARs; [14]): 7.5 µM
- EC50 (GluN1/GluN2D NMDARs; [15]): 7.8 µM
- Fold Difference (glutamate EC50) (GluN1/GluN2D NMDARs; control vs 10 µM EU1794-27): 5.3^†
- Fold Difference (glycine EC50) (GluN1/GluN2D NMDARs; control vs 10 µM EU1794-27): 4.9^†
- EC50 (GluN1/GluN2D NMDARs; [11]): 2.4 µM
- Emax (GluN1/GluN2D NMDARs; [5]): 250%
- EC50 (GluN1/GluN2D NMDARs; [6]): 8.3 µM
- Emax (GluN1/GluN2D NMDARs; [7]): 580%
SMILES: CC(C)(C)OC(=O)c1c(NC(=O)CC2SC(=N)NC2=O)sc2c1CCCC2 (stereo not drawn) [EU1794-27, tert-butyl 2-(2-(2-imino-4-oxothiazolidin-5-yl)acetamido)-4,5,6,7-tetrahydrobenzo[b]thiophene-3-carboxylate]
